pIC50: −log10 of the molar value. Read-outs that look alike come from different tables or passages of the source.
Target: Human indoleamine 2,3-dioxygenase-2 (hIDO2) (Homo sapiens (Human), UniProt Q6ZQW0)
Assay: In-vitro IDO2 enzyme assay
Format: biochemical
Excerpt: Human indoleamine 2,3-dioxygenase-2 (hIDO2) catalyzes the oxidative cleavage of the pyrrole ring of the indole nucleus of tryptophan to yield N-formylkynurenine which can be converted to kynurenine (KYN) by deformylation. hIDO2 with an C-terminal His tag (Sino Biological Inc (China)) was expressed in E. coli cells and the protein was purified using standard methods well known in the art. Unless otherwise stated, all materials were procured from Sigma Aldrich, Mo., USA.
The assay monitoring the conversion of L-tryptophan to KYN was carried out as follows. hIDO2 (160 nM) was incubated with tryptophan (5000 04) in the presence of ascorbic acid (20 mM), methylene blue (10 04) and catalase (100 μg/mL) in potassium phosphate buffer (100 mM; pH 7.5) at 37 degrees C. for 30 min. The reaction was terminated with 30% trichloroacetic acid (TCA) and further incubated at 65 degrees C. for 15 min to fully convert N-formylkynurenine to KYN. The reaction mixture was then centrifuged to remove sediments, and the KYN in the supernatant was measured by UV-visible absorption spectroscopy at 360 nm using a Waters HPLC system fitted with a C-18 column or by LC/MS/MS (C. J. D Austin et. Al, Amino Acid 2009, 565-578).
Percent inhibition at each concentration of test compounds was determined by determining the decrease in KYN with reference to the reaction control with 1% DMSO vehicle. Data were analyzed using nonlinear regression to generate IC50 values using Graph Pad Prism® 5. Compounds 2 and 184 were tested as described above.

[1] = IDO2 Enzyme assay, read-out: IC50 values IDO2
[2] = IDO2 enzyme assay, read-out: IDO2 IC50

Chain of Human indoleamine 2,3-dioxygenase-2 (hIDO2) (Q6ZQW0 whole entry): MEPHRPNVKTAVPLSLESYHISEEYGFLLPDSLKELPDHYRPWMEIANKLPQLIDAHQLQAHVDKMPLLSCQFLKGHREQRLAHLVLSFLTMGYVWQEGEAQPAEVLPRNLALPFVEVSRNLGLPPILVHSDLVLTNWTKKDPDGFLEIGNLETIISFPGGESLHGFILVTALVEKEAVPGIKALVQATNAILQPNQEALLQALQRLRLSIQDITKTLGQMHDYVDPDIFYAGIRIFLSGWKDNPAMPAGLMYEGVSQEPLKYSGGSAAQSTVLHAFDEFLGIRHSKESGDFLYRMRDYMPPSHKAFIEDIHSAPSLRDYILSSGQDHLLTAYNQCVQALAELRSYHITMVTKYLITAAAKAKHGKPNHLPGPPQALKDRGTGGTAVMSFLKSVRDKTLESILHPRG

| pIC50 [1] | pIC50 [2] | Compound |
| --- | --- | --- |
| > 6.00 | > 6.00 | Nc1oc2cnccc2c1Nc1ccc(F)c(Cl)c1 [Compound 2, N^3-(3-Chloro-4-fluoro-phenyl)-furo[2,3-c]pyridine-2,3-diamine] |
| > 6.00 | > 6.00 | Nc1oc2c(-c3ccncc3)nccc2c1Nc1ccc(F)c(F)c1 [Compound 184, N^3-(3,4-difluorophenyl)-7-(pyridin-4-yl)furo[2,3-c]pyridine-2,3-diamine] |

Source: patent US10294212B2 (CURADEV PHARMA PRIVATE LTD., priority 2013, dated 2019)
